Data: US20020003114A1, “Partially halogenated hydantoins in papermaking applications” (Lonza Inc.;, priority 2000, published 2002)

Experiments:
[1] = test system: organisms native to the white water; assay: Bactericidal efficacy of slimicides in paper mill white water; format: cell-based; settings: Table 8
Method: White water was obtained from a Northeastern paperboard mill. The pH of the white water was about 6.5-7.5. The consistency of the white water was typically 0.1-0.2%. The furnish pulp was approximately 50% mixed, 15% chip, 15% corrugated, and 15% newspaper. The white water contained the sizing alkyl ketene dimer (AKD). The test organisms were those native to the white water.
The slimicide was added at a concentration of from about 15 to about 20 ppm (expressed as Cl2) to the white water. The white water was then incubated for 3 hours at 37° C. The test conditions were based on ASTM E 600-91 and ASTM E 1839-96. Bacterial counts were performed using tryptone glucose extract agar by known pour plate techniques. DIFCO D/E Neutralizing Broth was used as the first serial dilution tube for biocide neutralization.
The bactericidal efficacy of each slimicide in Table 6 was determined according to the procedure described in Example 2, except the incubation time was 30 minutes instead of 3 hours and the initial concentration of slimicide was about 20 ppm (expressed as Cl2).
The bactericidal efficacy rate of each slimicide was determined by dividing the observed log reduction in the bacterial count by the 30 minute contact time. The bactericidal efficacy rate at 2 ppm of slimicide (expressed as C2) was extrapolated from the results for 20 ppm of slimicide (expressed as Cl2) by assuming a first order behavior. […]
The bactericidal efficacy and bacterial efficacy rate of each slimicide in Table 8 below was determined according to the procedure described in Example 5.
The bactericidal efficacy of each slimicide in Table 10 was determined according to the procedure described in Example 2, except the initial concentration of slimicide was about 10 ppm (expressed as Cl2).
The microbiocidal efficacy rate of each slimicide was determined by dividing the observed log reduction in the bacterial count by the 180 minute contact time. The efficacy rate at 2 ppm of slimicide (expressed as Cl2) was extrapolated from the results for 10 ppm of slimicide (expressed as Cl2) by assuming a first order behavior. […]

[2] = Oxidant (halogen) loss rate with performance additive PAE; format: physicochemical
Method: (§1) 125 mL solutions containing 2.0 ppm (expressed total halogen as Cl2) of Cl0.9-5,5-dimethyl hydantoin, Dantochlor®, sodium hypochlorite, Dantobrom®, or sodium hypobromite and a performance additive described in Table 4 were prepared by mixing the appropriate amounts of the ingredients in tap water at a temperature of about 37° C. and a pH of about 8.
(§2) The degeneration of the performance additives tested was determined by measuring the residual oxidant (halogen) concentrations of the solutions over time as follows. The tests were performed in a water bath maintained at 37° C. and an orbital shaker in order to keep the performance additives dispersed in the solutions. Aliquots were taken at regular intervals over a 30 minute period and measured for residual slimicide concentrations using the standard diethyl-p-phenylene diamine (DPD) methodology described in Palin, A. T., Chemistry and Control of Modem Chlorination, La Motte Chemical (1973). The oxidant (halogen) loss rates were determined from first order linear regression plots of the residual oxidant (halogen) concentrations over time.
(§3) The ratio of bactericidal efficacy to oxidant loss rate was calculated for the slimicides and performance additives in Table 7 based on the results in Tables 5 and 6 above. […]

[3] = Oxidant (halogen) loss rate with performance additive A-PAM; format: physicochemical
Method: as §1, §2, §3

[4] = Oxidant (halogen) loss rate with performance additive C-Starch; format: physicochemical
Method: as §1, §2, §3

[5] = Oxidant (halogen) loss rate with performance additive C-PAM; format: physicochemical
Method: as §1, §2, §3

[6] = Oxidant (halogen) loss rate with performance additive AKD; format: physicochemical
Method: as §1, §2, §3

[7] = Table 9, extrapolated rate at 2 ppm (Table 8) divided by oxidant loss rate (Table 5)

[Na+].[O-]Br [NaOBr, Sodium hypobromite]
Bactericidal Efficacy Rate (log cfu/ml reduction per minute) ([1]; 20 ppm slimicide, log reduction divided by 30 minute contact time): 0.002 log cfu/ml reduction per minute | Extrapolated Bactericidal Efficacy Rate (at 2 ppm of Slimicide) (log cfu/ml reduction per minute) ([1]; extrapolated from 20 ppm to 2 ppm assuming first order (one-tenth)): 0.0002 log cfu/ml reduction per minute | Bactericidal Efficacy (log cfu/ml reduction in 30 minutes) ([1]; procedure of Example 5, slimicide about 20 ppm (as Cl2), white water, 30 minutes): 0.07 log cfu/ml reduction | Ratio of Bactericidal Efficacy Rate to Oxidant Loss Rate, PAE [2, 7]: 0.002 log cfu/ml reduction per ppm | Oxidant (Halogen) Loss Rate, PAE ([2]; slimicide 2.0 ppm (as Cl2), PAE 100 ppm active, tap water, 37° C., pH about 8, 30 minutes): 0.103 ppm/min | Ratio of Bactericidal Efficacy Rate to Oxidant Loss Rate, A-PAM [3, 7]: 0.007 log cfu/ml reduction per ppm | Oxidant (Halogen) Loss Rate, A-PAM ([3]; slimicide 2.0 ppm (as Cl2), A-PAM 50 ppm active, tap water, 37° C., pH about 8, 30 minutes): 0.029 ppm/min | Ratio of Bactericidal Efficacy Rate to Oxidant Loss Rate, C-Starch [4, 7]: 0.02 log cfu/ml reduction per ppm | Oxidant (Halogen) Loss Rate, C-Starch ([4]; slimicide 2.0 ppm (as Cl2), C-Starch 100 ppm active, tap water, 37° C., pH about 8, 30 minutes): 0.010 ppm/min | Ratio of Bactericidal Efficacy Rate to Oxidant Loss Rate, C-PAM [5, 7]: 0.008 log cfu/ml reduction per ppm | Oxidant (Halogen) Loss Rate, C-PAM ([5]; slimicide 2.0 ppm (as Cl2), C-PAM 4 ppm active, tap water, 37° C., pH about 8, 30 minutes): 0.025 ppm/min | Ratio of Bactericidal Efficacy Rate to Oxidant Loss Rate, AKD [6, 7]: 0.07 log cfu/ml reduction per ppm | Oxidant (Halogen) Loss Rate, AKD ([6]; slimicide 2.0 ppm (as Cl2), AKD 10 ppm active, tap water, 37° C., pH about 8, 30 minutes): 0.003 ppm/min
